Results taken from ChEMBL document CHEMBL1147032, “Design, synthesis, and biological evaluation of substituted 2-alkylthio-1,5-diarylimidazoles as selective COX-2 inhibitors” (Bioorg Med Chem, 2007).

What was measured:
Rattus norvegicus [1] = assay: Antiinflammatory activity against carrageenan-induced paw edema in Sprague-Dawley rat at 50 mg/kg, po after 3 hrs; format: functional
[2] = biological target: T1, Prostaglandin G/H synthase 2 (Mus musculus, UniProt Q05769); assay: Inhibition of mouse COX2
T1 sequence (Q05769 whole entry): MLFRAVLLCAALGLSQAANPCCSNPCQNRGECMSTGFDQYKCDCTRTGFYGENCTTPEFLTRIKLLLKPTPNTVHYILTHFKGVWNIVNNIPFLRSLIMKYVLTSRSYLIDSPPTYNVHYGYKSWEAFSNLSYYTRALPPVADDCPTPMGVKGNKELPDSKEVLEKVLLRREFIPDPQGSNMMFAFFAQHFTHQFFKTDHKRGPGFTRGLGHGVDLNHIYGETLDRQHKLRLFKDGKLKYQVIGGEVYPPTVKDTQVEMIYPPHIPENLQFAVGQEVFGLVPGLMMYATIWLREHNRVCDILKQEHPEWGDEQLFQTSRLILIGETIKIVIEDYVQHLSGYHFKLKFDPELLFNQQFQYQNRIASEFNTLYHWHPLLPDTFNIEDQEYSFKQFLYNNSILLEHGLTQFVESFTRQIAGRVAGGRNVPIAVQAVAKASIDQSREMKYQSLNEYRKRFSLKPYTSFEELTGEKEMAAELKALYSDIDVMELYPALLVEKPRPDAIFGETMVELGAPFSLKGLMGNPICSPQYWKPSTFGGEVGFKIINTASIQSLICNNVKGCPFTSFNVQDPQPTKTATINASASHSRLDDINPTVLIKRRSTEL

Rattus norvegicus [3] = assay: Antiinflammatory activity against carrageenan-induced paw edema in Sprague-Dawley rat at 50 mg/kg, po after 5 hrs; format: functional
[4] = biological target: T2, Prostaglandin G/H synthase 1 (Ovis aries, UniProt P05979); assay: Inhibition of ovine COX1
T2 sequence (P05979 whole entry): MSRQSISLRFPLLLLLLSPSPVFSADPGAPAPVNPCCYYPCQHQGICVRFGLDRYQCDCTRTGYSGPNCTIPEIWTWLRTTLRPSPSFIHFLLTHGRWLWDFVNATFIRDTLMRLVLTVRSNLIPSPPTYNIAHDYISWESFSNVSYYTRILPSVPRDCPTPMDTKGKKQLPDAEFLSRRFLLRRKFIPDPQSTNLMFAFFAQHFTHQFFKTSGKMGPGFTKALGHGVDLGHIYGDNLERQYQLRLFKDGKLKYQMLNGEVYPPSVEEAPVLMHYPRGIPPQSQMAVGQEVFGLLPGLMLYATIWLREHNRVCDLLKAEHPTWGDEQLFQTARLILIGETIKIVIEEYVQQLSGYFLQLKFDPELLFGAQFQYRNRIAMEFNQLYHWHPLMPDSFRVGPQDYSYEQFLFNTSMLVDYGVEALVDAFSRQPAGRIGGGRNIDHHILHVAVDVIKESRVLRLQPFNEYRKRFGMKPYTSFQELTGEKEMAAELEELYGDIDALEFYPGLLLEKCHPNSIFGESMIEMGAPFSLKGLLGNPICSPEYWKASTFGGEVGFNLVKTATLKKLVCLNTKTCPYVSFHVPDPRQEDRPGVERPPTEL

[5] = Inhibition of ovine COX1 at 25 uM
[6] = Inhibition of ovine COX1 at 0.5 uM

Compound | IC50 [2] | IC50 [4] | inhibition [5] | inhibition [6] | inhibition in vivo at 50 mg/kg (Rattus norvegicus [1]) | inhibition in vivo at 50 mg/kg (Rattus norvegicus [3])
CSc1ncc(-c2ccc(S(C)(=O)=O)cc2)n1-c1ccc(F)cc1 | > 25000 nM | 520 nM | – | – | 40% | 18.7%
CSc1ncc(-c2ccc(S(C)(=O)=O)cc2)n1-c1ccc(Cl)cc1 | > 25000 nM | 470 nM | – | – | 59.5% | 42.7%
CSc1ncc(-c2ccc(S(C)(=O)=O)cc2)n1-c1ccc(Br)cc1 | > 25000 nM | 430 nM | – | – | 90.7% | 88%
CCSc1ncc(-c2ccc(S(C)(=O)=O)cc2)n1-c1ccc(OC)cc1 | > 25000 nM | 510 nM | – | – | – | –
Cc1ccc(-c2cc(C(F)(F)F)nn2-c2ccc(S(N)(=O)=O)cc2)cc1 [CELECOXIB] | – | – | – | – | 70.5% | 50%
CSc1ncc(-c2ccc(S(C)(=O)=O)cc2)n1-c1ccccc1 | > 25000 nM | 580 nM | – | – | 74.1% | 61.6%

The next lines start with results.

IC50 [2] | IC50 [4] | inhibition [5] | inhibition [6] | Compound | inhibition in vivo at 50 mg/kg (Rattus norvegicus [1]) | inhibition in vivo at 50 mg/kg (Rattus norvegicus [3])
> 25000 nM | 820 nM | – | – | CCSc1ncc(-c2ccc(S(C)(=O)=O)cc2)n1-c1ccc(Cl)cc1 | 53.8% | 52.7%
> 25000 nM | > 4000 nM | – | – | CCSc1ncc(-c2ccc(S(C)(=O)=O)cc2)n1-c1ccc(Br)cc1 | 66% | 59%
> 25000 nM | 580 nM | – | – | CCSc1ncc(-c2ccc(S(C)(=O)=O)cc2)n1-c1ccccc1 | 89.7% | 51.1%
> 25000 nM | 500 nM | 29% | 21% | CCSc1ncc(-c2ccc(S(C)(=O)=O)cc2)n1-c1ccc(F)cc1 | 65% | 43%
> 25000 nM | 2610 nM | – | – | COc1ccc(-n2c(-c3ccc(S(C)(=O)=O)cc3)cnc2SC)cc1 | 41.3% | 34.3%
